Experimental data taken from ChEMBL document CHEMBL5661955, “ASAP - In vitro cytotoxicity” (2024).
“And” between values parts separate entries of the source, which are not always exact repeats. Equal entries are not always repeated.

What was measured:
[1] = Functional assay to measure dose dependent changes in cell viability from drug treatment in Vero E6 miRFP670 cells (cotreated with P-gp inhibitor, CP100356) that are infected with Dengue virus type 2 New Guinea C. […] Cytotoxicity is reported via via analysis of DAPI count using high-content imager. The assay has been performed by KU Leuven.; type: toxicity, cell-based, Vero C1008; conditions: chlorocebus sabaeus, p-gp concentration 500 nM
[2] = Functional metabolic assay to measure dose dependent changes in cell viability from drug treatment in Vero E6/TMPRSS2 cells (cotreated with P-gp inhibitor, Elacridar). […] Cytotoxicity is reported via measuring absorbance and analysis of MTT/MTS assays in uninfected cells. The assay has been performed by Icahn School of Medicine at Mount Sinai.; type: toxicity, cell-based, VeroE6/TMPRSS2; conditions: chlorocebus sabaeus, p-gp concentration 2 uM; for CC50: Vero E6/TMPRSS2 cells, with Elacridar (P-gp inhibitor, concentration not stated); for CC10: veroe6/tmprss2
[3] = Functional CPE-based assay to measure dose dependent changes in cell viability from drug treatment in Vero E6 miRFP670 cells (cotreated with P-gp inhibitor, CP100356). Cells are treated with antiviral candidates that have been serially diluted. Cytotoxicity is reported via analysis of MTS assays in uninfected cells. The assay has been performed by KU Leuven.; type: toxicity, Vero C1008; conditions: chlorocebus sabaeus, p-gp concentration 500 nM
[4] = Functional CPE-based assay to measure dose dependent changes in cell viability from drug treatment in Vero E6 miRFP670 cells. Cells are treated with antiviral candidates that have been serially diluted. Cytotoxicity is reported via analysis of MTS assays in uninfected cells. The assay has been performed by KU Leuven.; type: toxicity, Vero C1008; conditions: chlorocebus sabaeus, Vero E6 miRFP670 cells
[5] = with CP100356 (P-gp inhibitor, concentration not stated)
[6] = Vero E6 miRFP670 cells, with CP100356 (P-gp inhibitor, concentration not stated)

SMILES | CC50 [1, 5] [µM] | CC50 [2] [µM] | CC10 [2] | CC50 [3, 6] [µM] | CC50 [4] [µM] | CC50 ([1]; vero c1008) | CC50 ([3]; vero c1008)
O=C(Nc1ccc2c(c1)CNC2)c1cc(Br)cc2[nH]c([C@H]3CCOC3)nc12 | 3.68 | 26.1 | 0.852 µM | 5.11 |  |  | 
O=C(NCC1CC1)c1cc(Cl)ccc1NS(=O)(=O)c1ccc(Oc2ccccc2Cl)cc1 |  |  |  |  | 5.46 |  | 
O=C1Cc2c(cc(Br)cc2C(=O)Nc2ccc3c(c2)CNC3)N1 | 27.7 | > 50 |  | > 50 |  |  | 
CNC(=O)[C@H](Nc1ccc2c(c1)CNC2)c1cc(Cl)cc(C2CC2)c1 | > 50 | > 50 | > 50 µM | > 50 |  |  | 
NCc1cccc(NC(=O)c2cc(Cl)cc3[nH]ncc23)c1 |  |  |  |  | > 50 |  | 
CN1Cc2ccc(NC(=O)c3cc(Cl)cc4[nH]ncc34)cc2C1 |  |  |  |  | > 50 |  | 
O=C(Nc1ccc2c(c1)CNC2)c1cc(F)cc2[nH]nnc12 | > 50 | > 50 | > 50 µM | > 50 |  |  | 
CC(=O)NCc1cccc(NC(=O)c2cc(Cl)cc(NC(=O)OCc3ccccc3)c2)c1 |  |  |  |  | 38 |  | 
O=C(Nc1cccc(-c2nnn[nH]2)c1)c1cc(Cl)cc2[nH]ncc12 |  |  |  |  | > 50 |  | 
Cc1c(C(=O)Nc2cc([C@H]3CCOC3)ccn2)cc(C2CC2)n1C | > 50 | > 50 | > 50 µM |  |  | 29.2 µM | 9.14 µM and > 50 µM
Cn1cc(CCc2nc3c(C(=O)Nc4ccc5c(c4)CNC5)cc(Cl)cc3[nH]2)cn1 | > 50 | > 50 | 17.311 µM | > 50 |  |  | 
O=C(NC[C@H]1CCCO1)[C@H](Nc1ccc2c(c1)CNC2)c1cc(Cl)cc2[nH]ncc12 | > 50 | > 50 | > 50 µM | > 50 |  |  | 
O=C(Nc1cc(Cl)cc(C(=O)Nc2cccc([C@H]3C[C@H]3C(=O)O)c2)c1)OCc1ccccc1 |  |  |  |  | > 50 |  | 
N#C[C@H](Nc1ccc2c(c1)CNC2)c1cc(Cl)cc(C2CC2)c1 | > 50 | > 50 | > 50 µM | 46.5 |  |  | 
O=C(Nc1ccc2c(c1)CNC2)c1cc(Br)cc2[nH]ncc12 | > 50 | > 50 | > 50 µM | > 50 |  |  | 
CCOCCNC(=O)c1cc(Cl)ccc1NS(=O)(=O)c1ccc(Oc2ccccc2Cl)cc1 |  |  |  |  | 8.81 |  | 
O=C(Nc1ccc2c(c1)CNC2)c1cc(C(F)(F)F)cc2[nH]ccc12 | > 50 | > 50 | > 50 µM | > 50 |  |  | 
COC(=O)CNC(=O)[C@H](Nc1ccc2c(c1)CNC2)c1cc(Cl)cc(C2CC2)c1 | 2.05 | > 50 |  | > 50 |  |  | 
O=C(NCc1ccc(F)cc1)[C@H](Nc1ccc2c(c1)CNC2)c1cc(Cl)cc2[nH]ncc12 | > 50 |  | > 50 µM | > 50 |  |  | 
COc1cc(Br)cc(C(=O)Nc2ccc3c(c2)CNC3)c1 | 27.5 | > 50 | 4.817 µM | 47.5 |  |  | 
N#CCCNC(=O)[C@H](Nc1ccc2c(c1)CNC2)c1cc(Cl)cc(C2CC2)c1 | 24.2 | > 50 | > 50 µM | > 50 |  |  | 
CC(C)c1cc(Br)cc(C(=O)Nc2ccc3c(c2)CNC3)c1 |  |  |  |  | 11.5 |  | 
O=C(Nc1cc(Cl)cc(-c2cccc3c(C(=O)O)cccc23)c1)OCc1ccccc1 |  |  |  |  | < 0.391 |  | 
COc1ccc(S(=O)(=O)Nc2cc(F)c(Cl)cc2C(=O)NCC(C)C)cc1 |  |  |  |  | 4.25 |  | 
O=C(Nc1ccc2c(c1)CNC2)c1cc(Br)cc2c1OCO2 |  |  |  |  | 23 |  | 
COCCNC(=O)[C@H](Nc1ccc2c(c1)CNC2)c1cc(Cl)cc(C2CC2)c1 | > 50 | > 50 | > 50 µM | > 50 |  |  | 

SMILES | CC50 [1, 5] [µM] | CC50 [2] [µM] | CC10 [2] | CC50 [3, 6] [µM] | CC50 [4] [µM] | CC50 ([1]; vero c1008) | CC50 ([3]; vero c1008)
COc1cc(-c2cc(Cl)cc(NC(=O)OCc3ccccc3)c2)c(OC)cc1CC(=O)O |  |  |  |  | 49.8 |  | 
NCc1cccc(NC(=O)c2cc(Cl)cc(C3CC3)c2)c1 |  |  |  |  | 46.6 |  | 
O=C(Nc1ccc2c(c1)CNC2)c1cc(Br)cc2ccccc12 |  |  |  |  | 11.4 |  | 
O=C(Nc1ccc2c(c1)CNC2)c1cc(Cl)cc2c1CCC2 |  |  |  |  | 18.4 |  | 
O=C(NC1CCOCC1)[C@H](Nc1ccc2c(c1)CNC2)c1cc(Cl)cc(C2CC2)c1 | > 50 | > 50 | > 50 µM | 49.9 |  |  | 
Nc1cc(Cl)cc(C(=O)Nc2ccc3c(c2)CNC3)c1N | > 50 | > 50 | < 0.023 µM | > 50 |  |  | 
O=C(Nc1ccc2c(c1)CNC2)c1cc(F)cc2[nH]ncc12 | > 50 | > 50 | > 50 µM | > 50 |  |  | 
N#C[C@H](Nc1cncc(-c2nn[nH]n2)c1)c1cc(Cl)cc(NC(=O)OCc2ccccc2)c1 |  |  |  |  | > 50 |  | 
O=C(Nc1cc(Cl)cc([C@H]2[C@H](CO)[C@@H]2c2cccc(-c3nn[nH]n3)c2)c1)OCc1ccccc1 |  |  |  |  | > 50 |  | 
Cn1cc2cc(Cl)cc(C(=O)Nc3ccc4c(c3)CNC4)c2n1 | 3.58 | > 50 | > 50 µM | 2.75 |  |  | 
O=C(Nc1ccc2c(c1)CCNCC2)c1cc(Cl)cc2[nH]ncc12 | > 50 | 44.2 | 7.014 µM | > 50 |  |  | 
O=C(NCC(F)F)[C@H](Nc1ccc2c(c1)CNC2)c1cc(Cl)cc(C2CC2)c1 |  | > 50 |  | > 50 |  | > 50 µM and 21.1 µM and 27.1 µM | 46.9 µM and 47.6 µM
N[C@H]1Cc2ccc(NC(=O)c3cc(Cl)cc4[nH]ncc34)cc2C1 | > 50 | > 50 | > 50 µM | > 50 |  |  | 
NCc1cc(Cl)cc(C(=O)Nc2ccc3c(c2)CNC3)c1 |  |  |  |  | > 50 |  | 
O=C(Nc1ccc2c(c1)CNCC2)c1cc(Cl)cc2[nH]ncc12 |  |  |  |  | > 50 |  | 
O=C(Nc1cccc(-c2nnn[nH]2)c1)c1cc(Cl)cc(C2CC2)c1 |  |  |  |  | > 50 |  | 
O=C(NC[C@H]1CCCO1)[C@H](Nc1ccc2c(c1)CNC2)c1cc(Cl)cc(C2CC2)c1 | > 50 | > 50 | > 50 µM | 39.2 |  |  | 
Cn1cc(CNC(=O)[C@H](Nc2ccc3c(c2)CNC3)c2cc(Cl)cc(C3CC3)c2)cn1 | > 50 | > 50 |  | > 50 |  |  | 
O=C(NC1CCCCC1)c1cc(Cl)ccc1NS(=O)(=O)c1ccc(Oc2ccccc2Cl)cc1 |  |  |  |  | 3.46 |  | 
N#Cc1cc(C(=O)Nc2ccc3c(c2)CNC3)cc(C(F)(F)F)c1 | 0.739 | > 50 | > 50 µM | > 50 |  |  | 
Cc1cc(C(=O)Nc2ccc3c(c2)CNC3)c2cn[nH]c2c1 | 24 |  | 24.901 µM and 9.914 µM | > 50 |  |  | 
Cc1c(C(=O)Nc2cc(-c3cccnc3)ccn2)cc(C2CC2)n1C | 18.9 | > 50 | 13.062 µM | > 50 |  | 11.9 µM | 40.1 µM
O=C(Nc1ccc2c(c1)CNC2)c1cc(Cl)cc2ccncc12 | > 50 | > 50 | > 50 µM | > 50 |  |  | 
Cc1ccc(NC(=O)c2cc(Cl)cc3[nH]ncc23)cc1CN | > 50 | > 50 | 0.133 µM | > 50 |  |  | 
CCc1cc(C(=O)Nc2cccc(-c3nnn[nH]3)c2)sc1-c1ccc(Cl)cc1 | > 50 | > 50 | > 50 µM | 38.6 |  |  | 
